In EP0759299B1, “Potentiation of serotonin response” (ELI LILLY AND COMPANY, priority 1995, dated 1997):

Assays:
Format in all cases: in vivo, Sprague-Dawley rats
NE = test: Microdialysis assay of monoamines in hypothalamus of conscious rats: NE; details: percent of baseline, pindolol s.c. infusion 50 mg/kg/hr from 120 min, single animal
Method: (§1) A David Kopf stereotaxic instrument was used to implant the probe unilaterally in the hypothalamus at coordinates rostral -1.5 mm, lateral -1.3 mm, and ventral -9.0 mm (Paxinos and Watson, 1986). After a 48 hour recovery period, rats were placed in a large plastic bowl with a mounted liquid swivel system (CMA/120 system for freely moving animals, Bioanalytical Systems, West Lafayette, IN). Filtered artificial cerebrospinal fluid (CSF) (150 mM NaCl, 3.0 mM KCl, 1.7 mM CaCl2, and 0.9 mM MgCl2) was perfused through the probe at a rate of […]. The output dialysate line was fitted to a tenport HPLC valve with a 20 µl loop. At the end of each 30 minute sampling period, dialysate collected in the loop was injected on an analytical column (Spherisorb 3 µ ODS2, 2X150 mm, Keystone Scientific).
(§2) The method used to measure monoamines was as described by Perry and Fuller (1992). Briefly, dialysate collected in the 20 µl loop was assayed for 5-HT, NE and DA. The 20 µl injection went onto the column with a mobile phase which resolved NE, DA, and 5-HT: 75 mM potassium acetate, 0.5 mM ethylenediaminetetraacetic acid, 1.4 mM sodium octanesulfonic acid and 8% methanol, pH 4.9. The mobile phase for the amine column was delivered with a flow programmable pump at an initial flow rate of 0.2 ml/min increasing to 0.3 ml/min at 5 min then decreasing back to 0.2 ml/min at 26 min with a total run time of 30 min. Flow programming was used to elute the 5-HT within a 25 min time period. The electrochemical detector (EG&G, Model 400) for the amine column was set at a potential of 400 mV and a sensitivity of 0.2 nA/V. The data was collected and analyzed with a Hewlett-Packard HP1000 chromatography system which measured peak heights and calculated sample concentrations. Basal levels were measured for at least 90 minutes prior to drug administration.
Extracellular levels of the amines in microdialysates were calculated by comparing peak heights with those of 50 pmole standards. […]

DA = test: Microdialysis assay of monoamines in hypothalamus of conscious rats: DA; details: percent of baseline, pindolol s.c. infusion 50 mg/kg/hr from 120 min, single animal
Method: as §1, §2
(§3) Extracellular levels of the amines in microdialysates were calculated by comparing peak heights with those of 50 pmole standards. The mean value of the four samples immediately preceding drug administration served as the basal level for each experiment and data was converted to percent of basal. Paired t-tests were used to compare the mean of the basal values from the time point immediately preceding drug administration to those of each time point thereafter.

5-HT = test: Microdialysis assay of monoamines in hypothalamus of conscious rats: 5-HT; details: L-tryptophan 100 mg/kg i.p. at 150 min, single animal
Method: as §1, §2, §3

Row | SMILES | NE (%) (NE; Test 2, 150 min) | NE (%) (NE; Test 2, 210 min) | NE (%) (NE; Test 2, 240 min) | DA (%) (DA; Test 2, 150 min) | DA (%) (DA; Test 2, 180 min) | DA (%) (DA; Test 2, 210 min) | DA (%) (DA; Test 2, 240 min) | 5-HT (5-HT; Test 1, 180 min) | 5-HT (5-HT; Test 1, 210 min) | 5-HT (5-HT; Test 1, 240 min) | 5-HT (5-HT; Test 1, 270 min)
1 | CC(C)NCC(O)COc1cccc2[nH]ccc12 (racemic) [pindolol, 4-(2-hydroxy-3-isopropylaminopropoxy)-indole] | 221.5 | 232.5 | 261.9 | 87.2 | 73.2 | 70.3 | 68.5 |  |  |  | 
2 | N[C@@H](Cc1c[nH]c2ccccc12)C(=O)O [L-tryptophan] |  |  |  |  |  |  |  | 88.5% of basal | 83.6% of basal | 76.3% of basal | 73.9% of basal
